US20260085101A1, “NOVEL PLATELET DERIVED GROWTH FACTOR PEPTIDE MIMETIC” (THE UNIVERSITY OF SYDNEY, priority 2022, published 2026)

How the values were obtained:
Assay type in all cases: cell-based
[1] = system: C3H10T½ mouse embryonic fibroblasts; assay: EdU proliferation assay (flow cytometry); details: C3H10T½ cells; 10 μM AG1296 with 20 ng/ml PDGF−BB
Procedure: FIG. 8. Proliferation of C3H10T½ Cells Following Treatment with PDGF and Novel PDGF Mimetic Peptides. Cultured C3H10T½ mouse embryonic fibroblast cells were treated with 20 ng/ml recombinant PDGF−AB or PDGF−BB protein ligands, and 2 μg/ml of novel PDGF mimetics JC5 or JC5a for 24 hr, in the presence of 1% fetal bovine serum (FBS). Percent proliferating cell was determined after a 2 hr pulse with nucleotide analogue EdU at the end of the incubation period. […] Co-treatment of protein/peptides with 10 μM of PDGF receptor antagonist, AG1296, confirmed that PDGF-BB-stimulated proliferation occurred via the PDGF ligand/receptor pathway. […] Error bars represent ±SD, n=3. Statistical analysis was using One-Way Anova: * p<0.05; ** p<0.01; *** p<0.001; **** p<0.0001. The mitotic effects of PDGF mimetic peptides JC5 and JC5a were tested using cultured C3H10T½ mouse embryonic fibroblasts. Proliferation was assayed after a pulse of nucleotide analogue 5-ethynyl-2′-deoxyuridine (EdU) and fluorescent detection using flow cytometry. Cells were treated with 20 ng/ml PDGF−BB or PDGF−AB, and 2 μg/ml of peptides JC5 or JC5a, in the presence of 1% fetal bovine serum (FBS) and DMEM for 24 hr. 10% FBS was used as a positive control, and co-treatments with specific PDGF receptor antagonist, AG1296, was used to ascertain whether proliferation occurred via the PDGF ligand/receptor pathway. Assays were performed in biological triplicate.

PDGF receptor = target: T1, PDGF receptor (Mus musculus, UniProt P05622); assay: Western blot for phosphorylation of ERK in C2C12 cells (PDGF receptor activation); details: 10 ng/ml PDGF, 1 μg/ml peptide, vs no treatment and AG1296+PDGF−AB controls
T1 construct: Phosphorylation of ERK following treatment of C2C12 Cells with PDGF and JC5; endogenous in cells; host or cells: C2C12 mouse myoblasts
Procedure: FIG. 5. Phosphorylation of ERK following treatment of C2C12 Cells with PDGF and JC5. Western blots for total (ERK) and phosphorylated ERK (pERK) at 42 and 44 kDa show an increase in phosphorylation following treatment with 10 ng/ml PDGF−BB and 1 μg/ml of JC5. FIG. 6. Phosphorylation of ERK following treatment of C2C12 Cells with PDGF and JC5a. Western blots for total (ERK) and phosphorylated ERK (pERK) at 42 and 44 kDa show an increase in phosphorylation 10 minutes post treatment with 10 ng/ml PDGF−BB and 1 μg/ml of novel mimetic peptide JC5a. JC5a maintained this increased phosphorylation of ERK at 30 minutes post treatment. PDGF receptor activation takes place via autophosphorylation of tyrosine […] residues at key sites throughout the intracellular domain. Autophosphorylation engages different signaling pathways, including ERK (MAPK) which participates in proliferation, cell survival, angiogenesis, and chemotactic activity of cells. Phosphorylation of ERK indicates successful activation of the PDGF receptor.

C2C12 mouse myoblasts [2] = assay: Collagen gel contraction assay with C2C12 cells
Source text: FIG. 3. Collagen Contraction of C2C12 Mouse Fibroblasts Treated with PDGF and peptides JC5 and JC5a. […] Error bars represent ±SD, n=8/4. The function of Compounds Ia (also referred to herein as JC5) and Ib (also referred to herein as JC5a) has been tested in vitro on the continuous cell line, C2C12 mouse myoblasts. In these in vitro assays recombinant PDGF−AB and −BB have been used as positive controls along with a serum starved no treatment control and the PDGF receptor inhibitor AG1296 co-treated with PDGF−AB as a negative control. The in vitro assays were designed to assess the major known functions of PDGF whilst also considering functions that are relevant to its in vivo applications. These functions were chemotaxis, collagen contraction, vascular tube formation and activation of the PDGF receptors via phosphorylation of Akt and Erk. Collagen contraction is an important function during wound healing of many tissues including the heart. This can be simulated in vitro using a collagen gel contraction assay. This was assessed using C2C12 cells treated with the positive controls 10 ng/ml recombinant PDGF-BB and PDGF−AB, negative control 10 μM AG1296 co-treated with 10 ng/ml recombinant PDGF−AB, a serum starved no treatment control and 1 μg/ml of the peptides JC5 and JC5a. C2C12 mouse myoblasts were seeded in a 3D collagen gel crosslinked with NaOH and incubated at 37° C. for 24 hours following treatment with the four controls and peptides JC5 and JC5a.

C2C12 mouse myoblasts [3] = assay: Scratch migration (chemotaxis) assay on C2C12 cells
Procedure: FIG. 2. Migration of C2C12 Mouse […] Cells Treated with PDGF and peptides JC5 and JC5a. C2C12 mouse fibroblast cells migrate across the scratch over 24 hours. Cells were treated with 10 ng/ml PDGF−AB (n=6), PDGF−BB (n=6), and 1 μg/ml of novel PDGF mimetic JC5 (n=6) and JC5a (n=3). […] There was also no statistically significant difference between the PDGF mimetic peptides and PDGF−AB and −BB positive controls. Error bars represent ±SD. The function of Compounds Ia (also referred to herein as JC5) and Ib (also referred to herein as JC5a) has been tested in vitro on the continuous cell line, C2C12 mouse myoblasts. In these in vitro assays recombinant PDGF−AB and −BB have been used as positive controls along with a serum starved no treatment control and the PDGF receptor inhibitor AG1296 co-treated with PDGF−AB as a negative control. The in vitro assays were designed to assess the major known functions of PDGF whilst also considering functions that are relevant to its in vivo applications. These functions were chemotaxis, collagen contraction, vascular tube formation and activation of the PDGF receptors via phosphorylation of Akt and Erk. Chemotaxis was assessed by making a scratch through a 2D culture of C2C12 cells following treatment with the four controls and the peptides JC5 and JC5a. They were then incubated for 24 hours at 37° C. Migration of the cells across the scratch at the conclusion of the incubation was measured and compared to the relevant controls described above. PDGF is a well-established mediator of chemotaxis and is expected to increase migration of the cells across the scratch over the course of 24 hours post treatment.

[4] = system: primary human coronary artery endothelial cells (HCAECs); assay: Vascular tube forming assay on Geltrex; details: 24 hours
Procedure: FIG. 4. Tube formation of Human Coronary Artery Endothelial Cells Treated with PDGF and PDGF Mimetic Peptide JC5. Human coronary artery endothelial cells treated with 50 ng/ml of PDGF−AB and PDGF−BB produced longer tubes than untreated cells and cells treated with the PDGF receptor inhibitor AG1296+PDGF−AB. […] Error bars represent ±SD, n=3/group.
PDGF has a well-established role in angiogenesis in vivo. To simulate this function in vitro a vascular tube forming assay on primary human coronary artery endothelial cells (HCAECs) was carried out. Cells were seeded on top of 3D growth factor reduced Geltrex basement membrane extract and incubated for 24 hours following treatment with the PDGF−AB, PDGF-BB, no treatment control, AG1296+PDGF−AB negative control, and peptides JC5 and JC5a. Over the course of 24 hours the cells form tubes throughout the gel. PDGF is reported to facilitate tube formation of endothelial cells in in vitro 3D assays.
Cells treated with 50 ng/ml of PDGF−AB, PDGF-BB, and 5 μg/ml of JC5 produced longer more uniform tubes than untreated cells and cells treated with the negative control 10 μM PDGF receptor inhibitor AG1296 co-treated with 50 ng/ml PDGF−AB (FIG. 4). The positive controls PDGF−AB and PDGF−BB produced tubes that were 560.7 μm (±53.93) and 616.3 μm (±39.07), respectively. […] The no treatment control and AG1296+PDGF−AB negative control produced tubes that were 305 μm and 307.7 μm, respectively. […] In summary, JC5 has similar vascular tube forming ability to recombinant human PDGF−AB and PDGF-BB.

T1 sequence (P05622 32-1098): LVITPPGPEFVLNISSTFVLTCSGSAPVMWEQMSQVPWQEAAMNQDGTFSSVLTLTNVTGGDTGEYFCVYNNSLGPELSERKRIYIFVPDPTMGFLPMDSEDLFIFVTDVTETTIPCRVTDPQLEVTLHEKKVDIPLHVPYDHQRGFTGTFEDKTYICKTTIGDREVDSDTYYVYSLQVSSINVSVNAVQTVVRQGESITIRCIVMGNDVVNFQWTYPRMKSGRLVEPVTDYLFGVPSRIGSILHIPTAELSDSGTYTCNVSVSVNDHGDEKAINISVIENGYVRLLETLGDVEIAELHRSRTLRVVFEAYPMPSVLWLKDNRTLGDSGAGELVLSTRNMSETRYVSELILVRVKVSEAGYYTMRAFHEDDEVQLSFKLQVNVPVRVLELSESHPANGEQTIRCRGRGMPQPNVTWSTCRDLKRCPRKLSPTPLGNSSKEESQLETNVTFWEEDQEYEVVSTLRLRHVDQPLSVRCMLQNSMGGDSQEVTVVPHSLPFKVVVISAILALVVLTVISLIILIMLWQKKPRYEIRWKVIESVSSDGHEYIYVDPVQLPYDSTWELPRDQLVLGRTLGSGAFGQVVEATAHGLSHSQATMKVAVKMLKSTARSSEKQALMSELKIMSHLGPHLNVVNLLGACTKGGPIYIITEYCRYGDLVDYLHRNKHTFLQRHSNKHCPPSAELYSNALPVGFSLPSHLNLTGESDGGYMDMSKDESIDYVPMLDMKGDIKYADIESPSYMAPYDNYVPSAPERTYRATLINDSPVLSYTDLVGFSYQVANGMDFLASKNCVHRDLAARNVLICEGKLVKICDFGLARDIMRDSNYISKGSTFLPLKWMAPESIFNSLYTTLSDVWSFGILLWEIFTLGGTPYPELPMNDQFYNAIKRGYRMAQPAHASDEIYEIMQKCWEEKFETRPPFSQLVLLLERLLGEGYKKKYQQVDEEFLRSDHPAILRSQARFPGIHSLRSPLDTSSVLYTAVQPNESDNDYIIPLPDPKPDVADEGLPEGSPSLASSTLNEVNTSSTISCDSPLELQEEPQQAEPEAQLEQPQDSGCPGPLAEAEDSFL

Compound | effect of AG1296 co-treatment on PDGF−BB-stimulated EdU uptake [1] | phosphorylation of ERK (pERK) (PDGF receptor) | collagen gel contracted to % of its initial surface area (C2C12 mouse myoblasts [2]; 24-hour incubation, 10 ng/ml PDGF, 1 μg/ml peptides, 10 μM AG1296, mean (±SD)) | difference in collagen gel area versus negative control AG1296 co-treated with PDGF−AB (Mean Diff.) (C2C12 mouse myoblasts [2]; 24 hours, vs negative control (55.25%)) | difference in collagen gel area versus no treatment control (Mean Diff.) (C2C12 mouse myoblasts [2]; 24 hours, vs no treatment control (41.27%)) | migration of cells across the scratch (C2C12 mouse myoblasts [3]; 24 hours at 37° C., 10 ng/ml PDGF, 1 μg/ml peptides, mean (±SD)) | increase in migration compared to the negative control (Mean Diff) (C2C12 mouse myoblasts [3]; 24 hours, vs AG1296+PDGF−AB negative control) | increase in migration compared to the no treatment control (Mean Diff.) (C2C12 mouse myoblasts [3]; 24 hours, vs no treatment control) | tube length ([4]; 50 ng/ml PDGF, 5 μg/ml JC5, 10 μM AG1296, mean (±SD)) | increased tube length compared to the negative control (Mean Diff.) ([4]; vs AG1296+PDGF−AB (307.7 μm)) | increased tube length compared to the no treatment control (Mean Diff.) ([4]; vs no treatment control (305 μm))
COc1cc2ncc(-c3ccccc3)nc2cc1OC [AG1296, reference compound] | significantly inhibited |  |  |  |  |  |  |  |  |  | 
PDGF−BB: recombinant human PDGF-BB protein ligand, positive control |  | phosphorylation of ERK (pERK) can be seen | 23.42% | 31.83% | 17.86% | 75.02% | 58.45% | 54.70% | 616.3 μm | 308.7 μm | 311.3 μm
